Structures are written as SMILES. Values joined by “and” are separate entries in the source; they are usually repeats but may differ in a detail not shown here. Identical values can stand only once.

This assay relates to S. Typhi PhoP-promoter GFP reporter, fluorescence, 4 h. The experiment in a line: PhoP regulon inhibitor project modified counter assay, GFP fluorescence readout, dose response (AID 1985).
Turning to `Cc1nonc1C(=O)N/N=C/c1ccc([N+](=O)[O-])o1`, the IC50 – broadly, the concentration needed to halve the response being measured – is 24.7 µM. The value for `Oc1cccc(Nc2nc(NCC3CCCO3)c3ccccc3n2)c1` (stereo not drawn) was 77.3 µM. In the case of `C#CCOCCOCCOCCNc1nc(N2CCN(C(=O)[C@H](Cc3cc4ccccc4[nH]3)n3cc([C@@H](N)C(C)CC)nn3)CC2)nc(N2CCN(C(=O)[C@H](Cc3cc4ccccc4[nH]3)n3cc([C@@H](N)Cc4ccc(O)cc4)nn3)CC2)n1` (stereo partly drawn) it was 60 µM.

Take `N#C/C(=C(/O)c1ccco1)c1nc2ccccc2s1`: the IC50 was 54.8 µM.

In the case of `Cc1ccc(C(=O)NNC(=S)NC(=O)c2ccccc2)cc1`, the half-inhibitory concentration (IC50) is 62.8 µM. Turning to `Fc1ccc(CCNCc2ccc(Cl)c(Cl)c2)cc1`, the IC50 is 68.4 µM.

Consider `Cc1cc(C)c2c(N)c3ccccc3nc2n1`, for which the IC50 was 86 µM.

On to `NC(N)=N/N=C/c1ccc(OCc2ccc(Cl)cc2Cl)cc1`, for which the IC50 is 16.9 µM. Regarding `O=C(Nc1ccccc1)Nc1nccs1`, the IC50 was 128 µM. In the case of `CN(C)CC/C=C1/c2cc(F)ccc2Sc2ccc(Cl)cc21` it was 84.9 µM; in that of `Cc1ccc2sc(N(CCCN(C)C)C(=O)c3ccc(Br)s3)nc2c1C`, 120 µM.

As to `Cc1cccc(Nc2nc(NCc3ccco3)c3ccccc3n2)c1`, the IC50 is 11 µM. For `O=C(Cc1ccccc1)N/N=C/c1cc(Br)cc(Cl)c1O`, the IC50 was 44.9 µM.

In the case of `Cc1cc(Cl)c(OCCCNCc2ccccc2)c(Br)c1`, the concentration for half-maximal inhibition (IC50) is 81.7 µM.

On to `Cc1cc([N+](=O)[O-])cc(/C=N\NC(=O)C2COc3ccccc3O2)c1O` (stereo not drawn), for which the IC50 was 23.3 µM. `C/C(=N\N=C(N)N)c1ccc(Cl)c(Cl)c1`: the half-inhibitory concentration (IC50) was 51.5 µM. In the case of `O=C(Nc1ccccc1)Oc1ccc[nH]c1=O` it was 55.8 µM; in that of `OC(CN1CCCCC1)Cn1c2ccccc2c2cc(Br)ccc21` (stereo not drawn), 81.9 µM; in that of `CN1CCN(C2=Cc3ccccc3Sc3cc(F)c(Cl)cc32)CC1`, 106 µM.

Take `C#CCOCCOCCOCCNc1nc(N2CCN(C(=O)CCCCCCCCCCNC(=O)[C@H](CCCCN)n3cc(CCO)nn3)CC2)nc(N2CCN(C(=O)CCCCCCCCCCNC(=O)[C@H](CCCCN)n3cc(C[C@@H](C)CC)nn3)CC2)n1`: the half-maximal inhibitory concentration (IC50) was 38 µM. For the compound `Cc1ccc(-c2csc(N=C(N)N)n2)c(C)c1`, the IC50 was 64.8 µM. For `Nc1nnc(-c2cccc(Cl)c2Cl)c(N)n1`, the half-inhibitory concentration (IC50) is 33 µM. In the case of `COc1ccc(NC(=O)COC(=O)c2ccc([N+](=O)[O-])o2)cc1Cl` it was 46.8 µM; in that of `O=C(Cn1cc[n+](CC(=O)c2ccc(Cl)cc2Cl)c1)c1ccc(Cl)cc1Cl`, 37.2 µM. `Cc1ccccc1C(=O)Nc1cccc(C(=O)N/N=C/c2cc(Cl)cc([N+](=O)[O-])c2O)c1`: the IC50 was 33.8 µM.

`CN1CCN(c2ccc(NC(=O)c3ccc(-c4ccc(Br)cc4)o3)cc2)CC1`: the IC50 was 83.3 µM.

As to `COc1ccc(C(=O)NC(=S)NNC(=O)c2cccc(C)c2)cc1`, the half-inhibitory concentration (IC50) was 46.8 µM. On to `COc1cccc(F)c1C(C[N+](=O)[O-])c1c(N)n(C)c(=O)n(C)c1=O` (stereo not drawn), for which the IC50 was 142 µM.

With `O=C1NCCCC1C(=O)N/N=C/c1cc([N+](=O)[O-])ccc1O` (stereo not drawn), the half-inhibitory concentration (IC50) was 114 µM. For the compound `O=C(Nc1nc(-c2ccccn2)cs1)c1ccc(Cl)s1`, the 50% inhibitory concentration (IC50) is 21.5 µM. As to `COc1c(N2CCN(C(=S)NCc3ccccc3)C(C)C2)c(F)cc2c(=O)c(C(=O)O)cn(C3CC3)c12` (stereo not drawn), the half-inhibitory concentration (IC50) was 10.8 µM. The value for `N#Cc1c(-c2ccccc2)ccn(Cc2cccc(Cl)c2)c1=O` was 21.2 µM; that for `OC(CNCCc1ccc(C(F)(F)F)cc1)COC(c1ccccc1)c1ccccc1` (stereo not drawn) was 82.9 µM. `Nc1nc(Nc2ccccc2)nc2ccccc12`: the half-inhibitory concentration (IC50) is 56.2 µM. The value for `Clc1cccc(CN2CCc3c([nH]c4ccccc34)C2)c1Cl` was 104 µM; that for `CC(Nc1nc(N2CCCC2)nc2ccccc12)c1ccccc1` (stereo not drawn) was 149 µM. In the case of `CO[C@@]1(NC(=O)C2SC(=C(C(N)=O)C(=O)O)S2)C(=O)N2C(C(=O)O)=C(CSc3nnnn3C)CS[C@@H]21` (stereo partly drawn) it was 13.1 µM; in that of `OC(CNCC1CCCO1)Cn1c2ccc(Cl)cc2c2cc(Cl)ccc21` (stereo not drawn), 38.8 µM; in that of `CC[C@H]1OC(=O)C[C@@H](O)[C@H](C)[C@@H](O[C@@H]2O[C@H](C)C[C@H](N(C)C)[C@H]2O)[C@@H](CC=O)C[C@@H](C)C(=O)C=C[C@]2(C)O[C@H]2[C@@H]1C`, 9.29 µM. The value for `c1cnc2c(c1)ccc1cccnc12` was 33.7 µM and 131 µM; that for `CN1CC=C(/C=C/c2ccc(-c3ccccc3)cc2)CC1` was 95.2 µM. For the compound `Cn1c(SCC(=O)N/N=C/c2ccc([N+](=O)[O-])s2)nnc1-c1ccc(Cl)cc1`, the IC50 was 38.9 µM. In the case of `Nc1nc(=S)c2[nH]cnc2[nH]1` it was 6.3 µM; in that of `O=c1[nH]c(=S)ccn1C1OC(CO)C(O)C1O` (stereo not drawn), 1.74 µM.

On to `CC(C)C1N=C(c2ccc3c(c2)OCO3)CC(c2ccccc2O)N1` (stereo not drawn), for which the IC50 was 121 µM.

For the compound `Cc1cc(C)n(/N=C/c2cc([N+](=O)[O-])ccc2O)c(=O)c1`, the IC50 is 70.5 µM.

As to `O=C(N/N=C/c1cc(Br)ccc1O)c1ccccc1Cl`, the half-inhibitory concentration (IC50) was 82.8 µM. For the compound `O=C(Nc1c(Cl)ccc2nsnc12)c1ccc([N+](=O)[O-])o1`, the IC50 was 56.7 µM. Consider `CCCCCN=C(N)N/N=C/c1c[nH]c2ccc(OC)cc12`, for which the concentration for half-maximal inhibition (IC50) is 35.6 µM. `O=C(Nc1nnc(-c2ccccn2)o1)c1cccc(Cl)c1`: the IC50 is 107 µM. In the case of `N#C/C(=N\Nc1ccc([N+](=O)[O-])cc1)C(N)=S` it was 110 µM; in that of `Cc1cc(C)c(NC(=O)C[N+](C)(C)CC(O)COc2cccc3ccccc23)c(C)c1` (stereo not drawn), 75.9 µM; in that of `COc1cc(CNCCO)cc(Cl)c1OCc1ccc(Cl)cc1Cl`, 39 µM. In the case of `CCN(CC)CCn1c(=N)n(CC(O)COc2cccc(C)c2)c2ccccc21` (stereo not drawn) it was 85.2 µM; in that of `c1ccc2oc(-c3csc(NCC4CCCO4)n3)cc2c1` (stereo not drawn), 142 µM.

As to `Nc1nc(F)nc2c1ncn2[C@@H]1O[C@H](CO)[C@@H](O)[C@H]1O`, the half-maximal inhibitory concentration (IC50) is 3.76 µM. `CC(/C=N/Nc1nc2ccccc2[nH]1)=C\c1ccccc1`: the IC50 was 71.8 µM.

Turning to `CC12CN3CC(C)(CN(C1)C3c1ccc(Br)cc1O)C2` (stereo not drawn), the IC50 is 133 µM. Regarding `CN(C)c1ccc(O)c2c1CC1CC3C(N(C)C)C(=O)C(C(N)=O)=C(O)[C@@]3(O)C(=O)C1=C2O` (stereo partly drawn), the IC50 was 3.21 µM. In the case of `Fc1ccccc1CCNCc1ccccc1` it was 45.7 µM; in that of `CCc1cccc2c(C(=O)COC(=O)c3ccc([N+](=O)[O-])s3)c[nH]c12`, 10.4 µM.

Take `CCOC(=O)N1CCN(Cc2cc(Cl)c3cccnc3c2O)CC1`: the IC50 was 37.8 µM. In the case of `COC12C(COC(N)=O)C3=C(C(=O)C(C)=C(N)C3=O)N1CC1C2N1C` (stereo not drawn) it was 31.2 µM; in that of `COc1cccc2c(=O)c(C(=O)O)c[nH]c12`, 106 µM; in that of `O=C(Nc1nnc(C2COc3ccccc3O2)o1)c1ccc(F)cc1` (stereo not drawn), 40.9 µM.

For the compound `Oc1cccc(C=NCc2ccccc2)c1O`, the half-maximal inhibitory concentration (IC50) is 57.7 µM. For the compound `Cn1c(N/N=C/c2c[nH]c3ccccc23)nc2ccccc21`, the IC50 was 113 µM.

With `O=C(Cn1nc(C(F)F)cc1C(F)F)NNC(=S)Nc1ccc([N+](=O)[O-])cc1`, the IC50 was 64.2 µM. In the case of `CCn1nc(C(=O)O)c(=O)c2cc3c(cc21)OCO3` it was 103 µM; in that of `O=[N+]([O-])c1cc(CN2CCN(c3cccc(C(F)(F)F)c3)CC2)c2cccnc2c1O`, 34.6 µM. As to `NC1=NC[C@H](c2ccccc2)N1CCCCC1CCCCC1`, the 50% inhibitory concentration (IC50) was 38.5 µM. Take `CCCCCCCC(=O)N/N=C/c1ccc([N+](=O)[O-])o1`: the IC50 was 30.2 µM. The value for `CCOc1ccc(Nc2c3ccccc3nc3ccccc23)cc1` was 56.7 µM; that for `O=C(/C=C/c1ccccc1)c1cc(Br)ccc(=O)c1O` was 51.1 µM; that for `c1ccc(Nc2ccnc(Nc3ccccc3)n2)cc1` was 67.2 µM.

Regarding `COc1cc([N+](=O)[O-])cc(/C=N/NC(=O)C(O)(c2ccccc2)c2ccccc2)c1O`, the IC50 was 57.5 µM.

With `Oc1ccc(COCc2ccccc2)c2cccnc12`, the IC50 is 47.8 µM.

In the case of `O=C(N/N=C/c1ccc([N+](=O)[O-])o1)C1CCCC1`, the IC50 was 37.7 µM.

On to `CCCCOc1ccc(OCCNC(=O)c2ccco2)cc1`, for which the IC50 is 65.4 µM. In the case of `CCCCOc1ccc(NC2=NC3(CCCCC3)N=C(N)N2)cc1` it was 20.1 µM; in that of `Cc1ccc2nc(N(CCCN(C)C)C(=O)c3ccc4c(c3)CCCC4)sc2c1`, 78.5 µM; in that of `COc1cc([N+](=O)[O-])cc(/C=N/NC(=O)c2cccnc2)c1O`, 66.7 µM. The value for `Nc1c(Cl)ncnc1N/N=C/c1ccccn1` was 33.4 µM. The value for `C#CCOCCOCCOCCNc1nc(N2CCN(C(=O)[C@H]([C@@H](C)CC)n3cc([C@@H](N)Cc4ccc(O)cc4)nn3)CC2)nc(N2CCN(C(=O)[C@H](Cc3cc4ccccc4[nH]3)n3cc([C@@H](N)CC(C)C)nn3)CC2)n1` was 150 µM; that for `O=C(CSC1=NC(=O)C(c2ccccc2)C(=O)N1)Nc1cccc(Cl)c1` (stereo not drawn) was 20.6 µM; that for `C[C@H]1c2cccc(O)c2C(O)=C2C(=O)[C@]3(O)C(O)=C(C(N)=O)C(=O)[C@@H](N(C)C)[C@@H]3[C@@H](O)[C@@H]21` was 1.97 µM. Turning to `CCCOc1ccc(C(=O)NNC(=S)NC(C)=O)cc1`, the half-maximal inhibitory concentration (IC50) is 52.3 µM. Turning to `COc1cccc(NC2=NC3(CCCCC3)N=C(N)N2)c1`, the IC50 is 147 µM. For the compound `Cc1ccccc1C(=O)N/N=C/c1ccc([N+](=O)[O-])s1`, the IC50 was 29 µM. As to `Oc1c(Cl)cc(CN2CCCCC2)c2cccnc12`, the IC50 was 15 µM. On to `CC(=O)NC(c1cccs1)c1cc([N+](=O)[O-])c2cccnc2c1O` (stereo not drawn), for which the 50% inhibitory concentration (IC50) was 31.3 µM.

Consider `CC(=O)Oc1ccccc1C(=O)Nc1ncc([N+](=O)[O-])s1`, for which the IC50 is 149 µM. As for `O=[N+]([O-])c1ccc(/C=[N+](\[O-])CCO)o1`, the IC50 is 33.6 µM. The value for `Oc1ccc(/C=N/Nc2nccnc2Cl)c(O)c1` was 65.8 µM. The value for `CC(C)CCC(CCNCc1ccccn1)c1ccc(Cl)cc1` (stereo not drawn) was 79.4 µM; that for `O=Cc1ccc(O)cc1O` was 109 µM. The value for `O=C(/C=C/c1cc(Br)ccc1O)c1ccco1` was 68.1 µM; that for `CCN(CC)CCNc1nc(-c2ccc(OC)cc2)c(-c2ccc(OC)cc2)s1` was below 0.23 µM.

(Values after PubChem BioAssay AID1985 (Southern Research Specialized Biocontainment Screening …, 2009).)
